Measurements taken from patent publication US12441757B2, “Platform for screening NAD+ binding proteins in a cellular context” (OREGON HEALTH & SCIENCE UNIVERSITY, priority 2020, dated 2025).

How the values were obtained:
PARP-1 [1] = molecular target: T1, PARP-1 (Homo sapiens, UniProt P09874); conditions: cited from earlier work
T1 construct: Full length His6-PARP-1 and His6-SUMO-PARP-10 proteins we expressed and purified; His6 (N); made in house

PARP-1 [2] = molecular target: T1, PARP-1; experiment: In vitro PARP-1 auto-PARylation activity assay; assay type: biochemical; conditions: dose response; activated DNA, 50 μM NAD^+, anti-ADPr immunoblot
Description: FIG. 5. A clickable NAD^+ PAL probe (2-ad-BAD) inhibits PARP-1 and PARP-10 activity in concentration response. (FIG. 5A) 50 nM of recombinant His6-PARP-1 was incubated with 10 μg/mL activated DNA in 100 mM NaCl, 50 mM HEPES [pH 7.4], 4 mM MgCl2, 0.2 mM TCEP for 10 min, then treated with indicated competitor (BAD or the PARP-1 inhibitor NMS-P118) for additional 10 min. 50 μM NAD^+ was then added to initiate auto-PARylation of PARP-1. After 10 min, the reaction was quenched by addition of 4× Laemmli sample buffer and boiling at 95° C. for 5 min. Protein samples were separated by SDS-PAGE, transferred onto nitrocellulose and probed with indicated antibodies. (FIG. 5B) Experiments were performed essentially as in (5A) with the exception that damaged DNA was omitted and the PARP-10 inhibitor ITK6 was used instead of NMS-P118. (FIG. 5C) Densitometry analyses of (5A) and (5B) comparing inhibitory effect of BAD on PARP-1 and PARP-10 auto-ADP-ribosylation. Data are mean±SEM of 3 independent experiments. […]
Samples were run on 10% or 12% acrylamide gels for ˜1 h at 180 V in Mini-PROTEAN Tetra cell (Biorad). […] Band intensities we quantified with ImageJ.

T1 sequence (P09874 whole entry): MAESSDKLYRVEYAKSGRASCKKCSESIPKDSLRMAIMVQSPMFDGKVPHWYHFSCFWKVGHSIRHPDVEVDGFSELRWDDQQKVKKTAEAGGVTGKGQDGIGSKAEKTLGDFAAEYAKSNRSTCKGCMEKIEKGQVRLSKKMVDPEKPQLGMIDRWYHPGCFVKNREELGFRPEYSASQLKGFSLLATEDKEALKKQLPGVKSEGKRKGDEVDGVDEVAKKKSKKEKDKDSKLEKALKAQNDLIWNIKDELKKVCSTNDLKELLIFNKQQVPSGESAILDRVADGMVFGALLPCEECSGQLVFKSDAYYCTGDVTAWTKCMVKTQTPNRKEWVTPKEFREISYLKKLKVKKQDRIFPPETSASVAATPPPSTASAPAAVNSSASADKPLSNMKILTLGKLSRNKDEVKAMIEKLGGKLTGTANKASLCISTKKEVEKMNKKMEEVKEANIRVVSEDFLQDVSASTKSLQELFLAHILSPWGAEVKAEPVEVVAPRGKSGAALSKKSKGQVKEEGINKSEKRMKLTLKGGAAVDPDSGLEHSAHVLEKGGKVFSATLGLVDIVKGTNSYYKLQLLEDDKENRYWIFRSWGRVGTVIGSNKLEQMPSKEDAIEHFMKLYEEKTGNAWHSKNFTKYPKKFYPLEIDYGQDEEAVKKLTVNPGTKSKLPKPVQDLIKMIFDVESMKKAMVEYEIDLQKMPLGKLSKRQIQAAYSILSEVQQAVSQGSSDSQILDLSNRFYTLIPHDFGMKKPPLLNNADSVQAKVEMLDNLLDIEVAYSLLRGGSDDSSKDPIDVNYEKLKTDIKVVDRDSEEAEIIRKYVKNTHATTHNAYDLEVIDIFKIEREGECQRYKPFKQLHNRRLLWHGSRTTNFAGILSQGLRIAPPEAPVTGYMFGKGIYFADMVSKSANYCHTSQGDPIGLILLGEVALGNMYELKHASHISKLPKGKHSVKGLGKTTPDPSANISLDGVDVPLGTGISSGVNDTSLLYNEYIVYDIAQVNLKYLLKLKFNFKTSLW

inhibition of PARP-1 auto-PARylation (PARP-1 [2]): inhibited
Compound: NC(=O)c1cccc([C@@H]2O[C@H](COP(=O)(O)OP(=O)(O)OC[C@H]3O[C@@H](n4cnc5c(N)ncnc54)[C@H](O)[C@@H]3O)[C@@H](O)[C@H]2O)c1 [BAD, benzamide adenine dinucleotide]
DNA dependence of binding to PARP-1 (PARP-1 [1]): DNA-dependent
binding to PARP-1 and inhibition of its enzymatic activity (PARP-1 [1]): binds to PARP-1 and inhibits its enzymatic activity
